These results are taken from patent US12521440B2, “Degradation of bruton's tyrosine kinase (BTK) by conjugation of BTK inhibitors with E3 ligase ligand and methods of use” (BeOne Medicines I GmbH, priority 2021, dated 2026).

One assay addresses T1, BTK (Homo sapiens, UniProt Q06187).
T1 construct: endogenous in cells; host or cells: TMD-8 cells
Put plainly: BTK degradation in TMD-8 cells (HTRF assay). As to conditions: 6 h treatment, HTRF BTK degradation IC50 (DC50). It counts as cell-based. An outline of the steps: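 BTK levels measured by HTRF (665/620 nm) in lysates of TMD-8 cells after 6 h compound treatment, with antibody incubation overnight at room temperature. Dosing covered 8 points, 6-fold dilutions from 1 mM 500× stocks, 0.2% DMSO final. Four-parameter curve fitting gave DC50.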

For a further assay, the system named is HEK-293 cells. Put plainly: HEK-293 cytotoxicity detection (CellTiter-Glo). As to conditions: Homo sapiens, 72 h incubation, read-out: HEK293. Type of assay: cell-based. An outline of the steps:
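Cytotoxicity IC50 derived by four-parameter curve fitting of percent inhibition of CellTiter-Glo luminescence. Compounds tested at 8 doses in 4-fold steps, 0.2% DMSO, on HEK-293 cells for 72 h.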

Molecules are shown by their SMILES. Bounds are passed on as bounds.

T1 sequence (Q06187 whole entry): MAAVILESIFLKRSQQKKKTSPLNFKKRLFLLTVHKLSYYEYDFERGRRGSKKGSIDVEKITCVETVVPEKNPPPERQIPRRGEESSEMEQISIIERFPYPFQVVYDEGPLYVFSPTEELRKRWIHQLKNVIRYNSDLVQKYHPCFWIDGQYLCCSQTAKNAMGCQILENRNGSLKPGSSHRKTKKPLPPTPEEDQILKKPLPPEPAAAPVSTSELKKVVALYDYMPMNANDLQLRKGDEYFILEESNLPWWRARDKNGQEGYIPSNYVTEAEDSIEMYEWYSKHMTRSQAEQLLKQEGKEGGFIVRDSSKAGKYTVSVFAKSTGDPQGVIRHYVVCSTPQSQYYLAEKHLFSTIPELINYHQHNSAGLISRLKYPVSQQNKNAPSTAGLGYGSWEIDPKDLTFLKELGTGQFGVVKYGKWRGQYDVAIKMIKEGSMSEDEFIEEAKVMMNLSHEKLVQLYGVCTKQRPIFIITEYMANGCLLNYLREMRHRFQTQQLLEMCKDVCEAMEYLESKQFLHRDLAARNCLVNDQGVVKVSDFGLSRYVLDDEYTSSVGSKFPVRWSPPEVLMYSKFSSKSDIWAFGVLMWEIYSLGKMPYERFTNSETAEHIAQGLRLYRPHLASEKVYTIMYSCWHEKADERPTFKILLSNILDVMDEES

For orientation: DC50 means the concentration giving 50% degradation. Read a high DC50 as a less potent degrader. In turn, `Cc1cc(-c2cc(Nc3ccc(N4CCN([C@H]5C[C@H](c6ccc(N[C@@H]7CCC(=O)NC7=O)cc6)C5)CC4)cn3)ncn2)ccc1[C@@H](C)NC(=O)c1nc(C(C)(C)C)no1` [Example 55, 3-(tert-butyl)-N—((R)-1-(4-(6-((5-(4-((1R,3r)-3-(4-(((R)-2,6-dioxopiperidin-3-yl)amino)phenyl)cyclobutyl)piperazin-1-yl)pyridin-2-yl)amino)pyrimidin-4-yl)-2-methylphenyl)ethyl)-1,2,4-oxadiazole-5-carboxamide] registered a DC50 at BTK of 2.08 nM. Also, in the assay on HEK-293 cells, the IC50 is greater than 10000 nM.

With `Cc1cc(-c2cc(Nc3ccc(N4CCN(C(=O)Cc5cccc(N6CCC(=O)NC6=O)c5)CC4)cn3)ncn2)ccc1[C@@H](C)NC(=O)c1nc(C(C)(C)C)no1` [Example 56, (R)-3-(tert-butyl)-N-(1-(4-(6-((5-(4-(2-(3-(2,4-dioxotetrahydropyrimidin-1(2H)-yl)phenyl)acetyl)piperazin-1-yl)pyridin-2-yl)amino)pyrimidin-4-yl)-2-methylphenyl)ethyl)-1,2,4-oxadiazole-5-carboxamide], the DC50 at BTK was found to be 9.9 nM. For the same molecule, in the assay with HEK-293 cells, the IC50 is greater than 10000 nM.

As for `Cc1cc(-c2cc(Nc3ccc(N4CCN(CC5CCN(c6cccc(CN7CCC(=O)NC7=O)c6)CC5)CC4)cn3)ncn2)ccc1[C@@H](C)NC(=O)c1nc(C(C)(C)C)no1` [Example 57, (R)-3-(tert-butyl)-N-(1-(4-(6-((5-(4-((1-(3-((2,4-dioxotetrahydropyrimidin-1(2H)-yl)methyl)phenyl)piperidin-4-yl)methyl)piperazin-1-yl)pyridin-2-yl)amino)pyrimidin-4-yl)-2-methylphenyl)ethyl)-1,2,4-oxadiazole-5-carboxamide], the half-maximal degradation concentration (DC50) on BTK came to 29.5 nM. The IC50 with HEK-293 cells was greater than 10000 nM.

With `Cc1cc(-c2cc(Nc3ccc(N4CCN(CCn5cccc(CN6CCC(=O)NC6=O)c5=O)CC4)cn3)ncn2)ccc1[C@@H](C)NC(=O)c1nc(C(C)(C)C)no1` [Example 58, (R)-3-(tert-butyl)-N-(1-(4-(6-((5-(4-(2-(3-((2,4-dioxotetrahydropyrimidin-1(2H)-yl)methyl)-2-oxopyridin-1(2H)-yl)ethyl)piperazin-1-yl)pyridin-2-yl)amino)pyrimidin-4-yl)-2-methylphenyl)ethyl)-1,2,4-oxadiazole-5-carboxamide], the DC50 at BTK amounted to 0.276 nM. In addition, the IC50 in the assay with HEK-293 cells was greater than 10000 nM.

Consider `Cc1cc(-c2cc(Nc3ccc(N4CCN(CC5CCN(c6ccc(CN7CCC(=O)NC7=O)cc6)CC5)CC4)cn3)ncn2)ccc1[C@@H](C)NC(=O)c1nc(C(C)(C)C)no1` [Example 59, (R)-3-(tert-butyl)-N-(1-(4-(6-((5-(4-((1-(4-((2,4-dioxotetrahydropyrimidin-1(2H)-yl)methyl)phenyl)piperidin-4-yl)methyl)piperazin-1-yl)pyridin-2-yl)amino)pyrimidin-4-yl)-2-methylphenyl)ethyl)-1,2,4-oxadiazole-5-carboxamide], for which the DC50 on BTK was determined as 10.2 nM. For the same molecule, the IC50 in the assay with HEK-293 cells is greater than 10000 nM.

In turn, `CCc1nc(Nc2cc(-c3ccc([C@@H](C)NC(=O)c4nc(C(C)(C)C)no4)c(C)c3)ncn2)ccc1N1CCN(CC2CCN(c3ccc(N4CCC(=O)NC4=O)cc3)CC2)CC1` [Example 60, (R)-3-(tert-butyl)-N-(1-(4-(6-((5-(4-((1-(4-(2,4-dioxotetrahydropyrimidin-1(2H)-yl)phenyl)piperidin-4-yl)methyl)piperazin-1-yl)-6-ethylpyridin-2-yl)amino)pyrimidin-4-yl)-2-methylphenyl)ethyl)-1,2,4-oxadiazole-5-carboxamide] displayed a DC50 at BTK of 3.93 nM. In the assay with HEK-293 cells, the IC50 is greater than 10000 nM.
